# Article PMC7070036, “An amber obligate active site-directed ligand evolution technique for phage display” (Nature Communications, 2020)
# “And” between values parts separate entries of the source, which are not always exact repeats. Identical values can stand only once. Like-named read-outs stand apart in the source and are kept apart here. Starred links: 1 amine or outer side, 2 acyl side, 3 side chain; linkers in the order of their positions; H or OH if unused. Non-standard residues stand in square brackets, D forms with d. Residues, ends and D or L forms follow the SMILES beside them. X1 = CCCC(=S)NCCCC[C@H](N[*:1])C(=O)[*:2]
# Legend:
# Format in all cases: biochemical
# SIRT2 = target: T1, SIRT2 (Homo sapiens, UniProt Q8IXJ6); experiment: Continuous fluorogenic sirtuin inhibition assay, SIRT2 (tBuK peptides, TB)
# T1 sequence (Q8IXJ6 1-389): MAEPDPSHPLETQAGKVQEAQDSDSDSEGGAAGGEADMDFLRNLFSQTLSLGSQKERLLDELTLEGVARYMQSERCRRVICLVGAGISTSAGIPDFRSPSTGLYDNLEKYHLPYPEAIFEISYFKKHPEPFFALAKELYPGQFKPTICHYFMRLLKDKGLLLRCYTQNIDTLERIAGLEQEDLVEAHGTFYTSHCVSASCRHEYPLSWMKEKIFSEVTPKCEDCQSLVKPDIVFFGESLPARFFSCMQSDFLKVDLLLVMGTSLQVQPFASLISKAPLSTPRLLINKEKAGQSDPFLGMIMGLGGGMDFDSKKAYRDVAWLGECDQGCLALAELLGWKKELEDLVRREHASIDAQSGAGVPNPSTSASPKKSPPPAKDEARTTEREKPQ
# Method: (§1) The continuous assay for comparing isoform specificity of S2P04 was performed using the universal fluorogenic sirtuin substrate described by Schuster et al.[41]. Briefly, the inhibition reactions were performed in 50-µL volumes at 37 °C in black, half-area, 96-well plates. The sirtuin enzyme (0.25 µM) was preincubated with different concentrations of the peptide S2P04 (0.0064–50 µM for SIRT1 and SIRT2, 0.5–100 µM for SIRT3) or TB (0.16–150 µM for SIRT1–SIRT3), and 1 mM NAD^+ in assay buffer (20 mM Tris, pH 7.8, 150 mM NaCl, 5 mM MgCl2, and 1 mM DTT) for 15 min. Following incubation, the reaction started with the addition of the fluorogenic substrate (5 µM), and product formation was monitored by measuring the fluorescence intensity every 20 s for 5 min (SIRT2) or 30 min (SIRT1 and SIRT3) in a BioTek Synergy H1 microplate reader at λex = 320 nm and λem = 408 nm (gain = 130 and read height = 7 mm). Initial rates of product formation were determined by a linear regression of the plot of fluorescence intensity vs. time and normalized relative to 0% (max inhibitor) and 100% (no inhibitor) controls. The assay was repeated to determine the IC50 values of all BuK peptides for SIRT2. IC50 values were determined by nonlinear regression of the plot of the normalized initial rate vs. inhibitor concentration using GraphPad Prism. The determined IC50 values are provided in Supplementary Table 2, and inhibition curves can be seen in Supplementary Fig. 20.
# SIRT1 = target: T2, SIRT1 (Homo sapiens, UniProt Q96EB6); experiment: Continuous fluorogenic sirtuin inhibition assay, SIRT1; conditions: for remaining activity at 0.5 µM: inhibitor 0.5 µM; for IC50: mean ± SD of two independent experiments
# T2 sequence (Q96EB6 1-747): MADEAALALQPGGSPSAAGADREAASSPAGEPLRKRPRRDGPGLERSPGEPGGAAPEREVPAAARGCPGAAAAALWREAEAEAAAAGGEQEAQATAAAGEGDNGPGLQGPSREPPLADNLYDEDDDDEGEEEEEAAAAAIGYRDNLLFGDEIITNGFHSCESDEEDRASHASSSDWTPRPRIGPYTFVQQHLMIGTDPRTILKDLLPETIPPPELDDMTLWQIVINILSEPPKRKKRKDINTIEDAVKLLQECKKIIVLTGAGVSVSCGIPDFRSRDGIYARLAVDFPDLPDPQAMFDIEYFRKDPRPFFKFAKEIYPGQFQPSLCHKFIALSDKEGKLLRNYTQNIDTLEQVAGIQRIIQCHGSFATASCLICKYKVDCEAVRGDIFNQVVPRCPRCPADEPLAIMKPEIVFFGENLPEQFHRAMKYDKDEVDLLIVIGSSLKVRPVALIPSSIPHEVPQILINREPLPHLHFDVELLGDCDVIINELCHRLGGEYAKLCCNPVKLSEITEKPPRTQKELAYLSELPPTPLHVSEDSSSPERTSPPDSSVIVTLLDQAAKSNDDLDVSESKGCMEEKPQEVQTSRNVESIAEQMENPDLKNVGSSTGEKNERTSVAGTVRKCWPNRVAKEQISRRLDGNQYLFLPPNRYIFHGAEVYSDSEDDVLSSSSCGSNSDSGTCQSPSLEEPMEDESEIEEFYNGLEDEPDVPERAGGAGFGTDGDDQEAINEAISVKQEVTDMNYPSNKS
# Method: as §1
# SIRT3 = target: T3, SIRT3 (Homo sapiens, UniProt Q9NTG7); experiment: Continuous fluorogenic sirtuin inhibition assay, SIRT3; conditions: for remaining activity at 0.5 µM: inhibitor 0.5 µM; for remaining activity at 1 µM: inhibitor 1 µM; for remaining activity at 4 µM: inhibitor 4 µM; for remaining activity at 10 µM: inhibitor 10 µM; for remaining activity at 100 µM: inhibitor 100 µM; for IC50: mean ± SD of two independent experiments
# T3 sequence (Q9NTG7 1-399): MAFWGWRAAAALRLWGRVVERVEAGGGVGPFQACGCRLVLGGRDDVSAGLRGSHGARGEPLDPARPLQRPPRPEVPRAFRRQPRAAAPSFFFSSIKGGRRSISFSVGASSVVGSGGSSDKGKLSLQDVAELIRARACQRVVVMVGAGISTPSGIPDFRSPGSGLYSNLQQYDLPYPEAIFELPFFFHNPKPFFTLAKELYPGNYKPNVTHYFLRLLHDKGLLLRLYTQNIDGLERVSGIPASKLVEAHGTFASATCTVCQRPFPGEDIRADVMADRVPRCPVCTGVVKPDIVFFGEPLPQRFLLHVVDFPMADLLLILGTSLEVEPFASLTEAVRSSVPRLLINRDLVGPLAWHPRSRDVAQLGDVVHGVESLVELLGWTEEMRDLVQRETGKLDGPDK
# Method: as §1
# [1] = inhibitor 0.5 µM, read-out: Normalized Activity, SIRT2
# [2] = inhibitor 0.5 µM, single trials
# [3] = inhibitor 0.5 µM, single trials, 0.5 µM
# [4] = inhibitor 1 µM, read-out: Normalized Activity, SIRT2
# [5] = inhibitor 1 µM, single trials, 1 µM
# [6] = inhibitor 4 µM, read-out: Normalized Activity, SIRT2
# [7] = inhibitor 4 µM, single trials, 4 µM
# [8] = inhibitor 50 µM, single trials, 50 µM
# [9] = mean ± SD of two independent experiments, read-out: IC50, SIRT2
# [10] = read-out: Normalized Activity, SIRT1
# [11] = read-out: Normalized Activity, SIRT3
SMILES,remaining activity at 0.5 µM (SIRT2; [1]),activity at 0.5 µM (SIRT2; [2]),"%Activity, SIRT2 (SIRT2; [3])",remaining activity at 1 µM (SIRT2; [4]),"activity at 1 µM (SIRT2; inhibitor 1 µM, single trials)","%Activity, SIRT2 (SIRT2; [5])",remaining activity at 4 µM (SIRT2; [6]),"activity at 4 µM (SIRT2; inhibitor 4 µM, single trials)","%Activity, SIRT2 (SIRT2; [7])","%Activity, SIRT2 (SIRT2; [8])",IC50 (SIRT2; [9]),remaining activity at 0.5 µM (SIRT1; [10]),IC50 (SIRT1),remaining activity at 0.5 µM (SIRT3; [11]),remaining activity at 1 µM (SIRT3; [11]),remaining activity at 4 µM (SIRT3; [11]),remaining activity at 10 µM (SIRT3; [11]),remaining activity at 100 µM (SIRT3; [11]),IC50 (SIRT3),also measured
CCCC(=S)NCCCC[C@H](NC(=O)[C@@H](NC(=O)[C@@H](NC(=O)[C@H](CS)NC(=O)[C@@H](N)[C@@H](C)O)[C@@H](C)O)C(C)C)C(=O)N[C@H](C(=O)NCC(N)=O)[C@@H](C)CC [S2P04-tBuK] (H-TCTV[X1]IG-NH2),5.68%,5.65%,6.5384%,3.34%,3.54%,4.6849%,2.33%,2.63%,3.5157%,1.0081%,0.092 ± 0.003 µM,26.2%,0.25 ± 0.05 µM,98.2%,96.2%,82.4%,59.8%,0%,14 ± 1 µM,"remaining activity at 0.0064 µM (SIRT2; inhibitor 0.0064 µM, read-out: Normalized Activity, SIRT2): 94.8%; activity at 0.0064 µM (SIRT2; inhibitor 0.0064 µM, single trials): 85.9%; %Activity, SIRT2 (SIRT2; inhibitor 0.0064 µM, single trials, 0.0064 µM): 94.59%; remaining activity at 0.032 µM (SIRT2; inhibitor 0.032 µM, read-out: Normalized Activity, SIRT2): 85.2%; activity at 0.032 µM (SIRT2; inhibitor 0.032 µM, single trials): 77.2%; %Activity, SIRT2 (SIRT2; inhibitor 0.032 µM, single trials, 0.032 µM): 83.831%; remaining activity at 2 µM (SIRT2; inhibitor 2 µM, read-out: Normalized Activity, SIRT2): 3.21%; activity at 2 µM (SIRT2; inhibitor 2 µM, single trials): 3.42%; %Activity, SIRT2 (SIRT2; inhibitor 2 µM, single trials, 2 µM): 4.4288%; remaining activity at 50 µM (SIRT2; inhibitor 50 µM, read-out: Normalized Activity, SIRT2): 0%; activity at 50 µM (SIRT2; inhibitor 50 µM, single trials): 0.535%; remaining activity at 0.0064 µM (SIRT1; inhibitor 0.0064 µM, read-out: Normalized Activity, SIRT1): 92.8%; remaining activity at 0.032 µM (SIRT1; inhibitor 0.032 µM, read-out: Normalized Activity, SIRT1): 87.5%; remaining activity at 2 µM (SIRT1; inhibitor 2 µM, read-out: Normalized Activity, SIRT1): 2.97%; remaining activity at 50 µM (SIRT1; inhibitor 50 µM, read-out: Normalized Activity, SIRT1): 0%; remaining activity at 2 µM (SIRT3; inhibitor 2 µM, read-out: Normalized Activity, SIRT3): 103%; remaining activity at 25 µM (SIRT3; inhibitor 25 µM, read-out: Normalized Activity, SIRT3): 29.6%; remaining activity at 50 µM (SIRT3; inhibitor 50 µM, read-out: Normalized Activity, SIRT3): 9.72%"
"CCCC(=S)NCCCC[C@H](NC(=O)OCc1ccccc1)C(=O)Nc1ccccc1 [TB, reference compound]",112%,112%,98.9568%,80.3%,80.3%,81.929%,40.6%,40.6%,42.8707%,-6.644% and -4.551%,3.11 ± 0.04 µM,98.9%,9.62 ± 0.09 µM,90.6%,91.2%,93.9%,92.4%,79.9%,> 150 µM,"IC50 (SIRT2; 0.25 µM SIRT2, 1 mM NAD+, 5 µM fluorogenic substrate, 15 min preincubation, n = 2, read-out: IC50): 3.11 ± 0.045 µM; remaining activity at 10 µM (SIRT2; inhibitor 10 µM, read-out: Normalized Activity, SIRT2): 6.05%; activity at 10 µM (SIRT2; inhibitor 10 µM, single trials): 6.05%; %Activity, SIRT2 (SIRT2; inhibitor 10 µM, single trials, 10 µM): 11.4809%; %Activity, SIRT2 (SIRT2; inhibitor 100 µM, (Activity/Activity w/o inhibitor)*100, single trials, 100 µM): -5.573% and -9.821%; remaining activity at 150 µM (SIRT2; inhibitor 150 µM, 100 = Activity w/o inhibitor, 0 = Activity of highest inhibitor, read-out: Normalized Activity, SIRT2): 0%; remaining activity at 1 µM (SIRT1; inhibitor 1 µM, read-out: Normalized Activity, SIRT1): 99%; remaining activity at 4 µM (SIRT1; inhibitor 4 µM, read-out: Normalized Activity, SIRT1): 75%; remaining activity at 10 µM (SIRT1; inhibitor 10 µM, read-out: Normalized Activity, SIRT1): 55.9%; remaining activity at 150 µM (SIRT1; inhibitor 150 µM, 100 = Activity w/o inhibitor, 0 = Activity of highest inhibitor, read-out: Normalized Activity, SIRT1): 0%; inhibition of SIRT3 (SIRT3; 0.16–150 µM): 0 = Activity of highest inhibitor *TB for SIRT3 showed no inhibiton"
